Activity calls are given as the source filed them. The rule behind the calls is not given here.
How the values were obtained:
[1] = test system: Echinochloa crus-galli; assay: Herbicidal activity against Echinochloa crus-galli (barnyard grass) using youngest fully expanded leaf assessed as inhibition of CO2 assimilation at 40 uM at 25 to 28 degC measured after 24 hr; format: functional
[2] = test system: Echinochloa crus-galli; assay: Herbicidal activity against Echinochloa crus-galli (barnyard grass) using youngest fully expanded leaf assessed as inhibition of stomatal conductance at 40 uM at 25 to 28 degC measured after 1 hr; format: functional
[3] = test system: Phaseolus vulgaris; assay: Herbicidal activity against Phaseolus vulgaris using youngest fully expanded leaf assessed as inhibition of CO2 assimilation at 40 uM at 25 to 28 degC measured after 120 hr; format: functional, organism-based
[4] = test system: Phaseolus vulgaris; assay: Herbicidal activity against Phaseolus vulgaris using youngest fully expanded leaf assessed as inhibition of stomatal conductance at 40 uM at 25 to 28 degC measured after 120 hr; format: functional, organism-based
[5] = test system: Echinochloa crus-galli; assay: Herbicidal activity against Echinochloa crus-galli (barnyard grass) using youngest fully expanded leaf assessed as inhibition of CO2 assimilation at 40 uM at 25 to 28 degC measured after 1 hr; format: functional
[6] = test system: Echinochloa crus-galli; assay: Herbicidal activity against Echinochloa crus-galli (barnyard grass) using youngest fully expanded leaf assessed as inhibition of stomatal conductance at 40 uM at 25 to 28 degC measured after 20 hr; format: functional
[7] = test system: Echinochloa crus-galli; assay: Herbicidal activity against Echinochloa crus-galli (barnyard grass) using youngest fully expanded leaf assessed as inhibition of CO2 assimilation at 40 uM at 25 to 28 degC measured after 5 days; format: functional, organism-based
[8] = test system: Phaseolus vulgaris; assay: Herbicidal activity against Phaseolus vulgaris assessed as reduction in dry biomass at 40 uM measured after 14 days treatment; format: functional, organism-based
[9] = test system: Echinochloa crus-galli; assay: Herbicidal activity against Echinochloa crus-galli (barnyard grass) assessed as chlorophyll loss at 40 uM measured after 5 days treatment (reference value: 0%); format: functional
[10] = test system: Fabaceae; assay: Induction of chlorophyll a fluorescence curve in Fabaceae (bean) leaf relative to control; format: functional, organism-based
[11] = test system: Physalis ixocarpa; assay: Herbicidal activity against Physalis ixocarpa using youngest fully expanded leaf assessed as intracellular CO2 concentration at 40 uM at 25 to 28 degC measured after 120 hr (reference value: 254.0 +/- 8.6 uL/L); format: functional
[12] = test system: Echinochloa crus-galli; assay: Herbicidal activity against Echinochloa crus-galli (barnyard grass) using youngest fully expanded leaf assessed as intracellular CO2 concentration at 40 uM at 25 to 28 degC measured after 120 hr (reference value: 171.0 +/- 23.1 uL/L); format: functional
[13] = target: T1, Photosystem I iron-sulfur center (Panicum virgatum) (UniProt G3EFH9); assay: Inhibition of PSI in Echinochloa crus-galli (barnyard grass) assessed as 50% compound concentration required to accept electrons
T1 sequence (whole entry): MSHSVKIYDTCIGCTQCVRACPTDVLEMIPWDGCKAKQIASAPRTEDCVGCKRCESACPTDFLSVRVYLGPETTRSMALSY

[14] = target: T1, Photosystem I iron-sulfur center (Panicum virgatum); assay: Inhibition of PSI in Echinochloa crus-galli (barnyard grass) using dark-adapted leaf assessed as photosynthetic electron transport at 40 uM measured after 1 hr by chlorophyll fluorescence induction curve assay
[15] = test system: Phaseolus vulgaris; assay: Herbicidal activity against Phaseolus vulgaris using youngest fully expanded leaf assessed as intracellular CO2 concentration at 40 uM at 25 to 28 degC measured after 120 hr (reference value: 256.0 +/- 5.8 uL/L); format: functional
[16] = test system: Echinochloa crus-galli; assay: Herbicidal activity against Echinochloa crus-galli (barnyard grass) assessed as electrolyte leakage at 40 uM measured after 5 days treatment (reference value: 100%); format: functional
[17] = test system: Echinochloa crus-galli; assay: Herbicidal activity against Echinochloa crus-galli (barnyard grass) using youngest fully expanded leaf assessed as inhibition of CO2 assimilation at 40 uM at 25 to 28 degC measured after 120 hr (reference value: 10.7 +/- 1.1 umol/m'2/s); format: functional
[18] = test system: Zea mays; assay: Herbicidal activity against Zea mays (maize) using youngest fully expanded leaf assessed as stomatal conductance at 40 uM at 25 to 28 degC measured after 120 hr (reference value: 103.9 +/- 6.5 mmol/m'2/s); format: functional
[19] = test system: Echinochloa crus-galli; assay: Herbicidal activity against Echinochloa crus-galli (barnyard grass) using youngest fully expanded leaf assessed as inhibition of stomatal conductance at 40 uM at 25 to 28 degC measured after 120 hr; format: functional, organism-based
[20] = test system: Zea mays; assay: Herbicidal activity against Zea mays (maize) using youngest fully expanded leaf assessed as intracellular CO2 concentration at 40 uM at 25 to 28 degC measured after 120 hr (reference value: 196.1 +/- 4.9 uL/L); format: functional
[21] = target: Photosystem II reaction center protein M (Pennisetum americanum) (UniProt Q672I5); assay: Inhibition of PSII in Echinochloa crus-galli (barnyard grass) using leaf assessed as inhibition of electron transport at 40 uM measured after 7 to 14 days
[22] = test system: Phaseolus vulgaris; assay: Herbicidal activity against Phaseolus vulgaris using youngest fully expanded leaf assessed as stomatal conductance at 40 uM at 25 to 28 degC measured after 120 hr (reference value: 161.8 +/- 10 mmol/m'2/s); format: functional
[23] = test system: Physalis ixocarpa; assay: Herbicidal activity against Physalis ixocarpa using youngest fully expanded leaf assessed as inhibition of CO2 assimilation at 40 uM at 25 to 28 degC measured after 120 hr (reference value: 6.3 +/- 0.6 umol/m'2/s); format: functional
[24] = test system: Echinochloa crus-galli; assay: Herbicidal activity against Echinochloa crus-galli (barnyard grass) assessed as reduction in dry biomass at 40 uM measured after 14 days treatment; format: functional; conditions: 336 h
[25] = test system: Zea mays; assay: Induction of chlorophyll a fluorescence curve in Zea mays (maize) leaf relative to control; format: functional, organism-based
[26] = test system: Physalis ixocarpa; assay: Herbicidal activity against Physalis ixocarpa assessed as reduction in dry biomass at 40 uM measured after 14 days treatment; format: functional, organism-based
[27] = target: Photosystem II reaction center protein M (Pennisetum americanum) (UniProt Q672I5); assay: Inhibition of PSII in Echinochloa crus-galli (barnyard grass) using dark-adapted leaf assessed as photosynthetic electron transport at 40 uM measured after 1 hr by chlorophyll fluorescence induction curve assay
[28] = test system: Solanum lycopersicum; assay: Induction of chlorophyll a fluorescence curve in green Solanum lycopersicum (tomato) leaf relative to control; format: functional, organism-based
[29] = test system: Zea mays; assay: Herbicidal activity against Zea mays (maize) assessed as reduction in dry biomass at 40 uM measured after 14 days treatment; format: functional; conditions: 336 h
[30] = test system: Echinochloa crus-galli; assay: Herbicidal activity against Echinochloa crus-galli (barnyard grass) using youngest fully expanded leaf assessed as stomatal conductance at 40 uM at 25 to 28 degC measured after 120 hr (reference value: 100.7 +/- 8.6 mmol/m'2/s); format: functional
[31] = test system: Physalis ixocarpa; assay: Herbicidal activity against Physalis ixocarpa using youngest fully expanded leaf assessed as stomatal conductance at 40 uM at 25 to 28 degC measured after 120 hr (reference value: 184.6 +/- 36.6 mmol/m'2/s); format: functional
[32] = test system: Zea mays; assay: Herbicidal activity against Zea mays (maize) using youngest fully expanded leaf assessed as inhibition of CO2 assimilation at 40 uM at 25 to 28 degC measured after 120 hr (reference value: 8 +/- 0.4 umol/m'2/s); format: functional
[33] = test system: Phaseolus vulgaris; assay: Herbicidal activity against Phaseolus vulgaris using youngest fully expanded leaf assessed as inhibition of CO2 assimilation at 40 uM at 25 to 28 degC measured after 120 hr (reference value: 7.2 +/- 0.3 umol/m'2/s); format: functional

## CC(NC1=CC(=O)C(NC(C)c2ccccc2)=CC1=O)c1ccccc1 (configuration not stated)
[1]
  inhibition at 40 µM: 84%
[2]
  inhibition at 40 µM: 45%
[3]
  inhibition: inactive
[4]
  inhibition: inactive
[5]
  inhibition at 40 µM: 80%
[6]
  inhibition at 40 µM: 62%

## COc1ccccc1NC1=CC(=O)C(Nc2ccccc2OC)=CC1=O
[1]
  inhibition at 40 µM: 84%
[2]
  inhibition at 40 µM: 45%
[3]
  inhibition: inactive
[4]
  inhibition: inactive
[5]
  inhibition at 40 µM: 80%
[6]
  inhibition at 40 µM: 62%

## O=C1C=C(Nc2ccccc2)C(=O)C=C1Nc1ccccc1
[1]
  inhibition at 40 µM: 84%
[7]
  inhibition: Active
[2]
  inhibition at 40 µM: 45%
[3]
  inhibition: inactive
[4]
  inhibition: inactive
[5]
  inhibition at 40 µM: 80%
[6]
  inhibition at 40 µM: 62%

## C[C@H](NC1=CC(=O)C(N[C@@H](C)[C@H](O)c2ccccc2)=CC1=O)[C@H](O)c1ccccc1
[1]
  inhibition at 40 µM: 84%
[2]
  inhibition at 40 µM: 45%
[3]
  inhibition: inactive
[4]
  inhibition: inactive
[5]
  inhibition at 40 µM: 80%
[6]
  inhibition at 40 µM: 62%

## O=C1C=C(NCc2ccccc2)C(=O)C=C1NCc1ccccc1
[1]
  inhibition at 40 µM: 84%
[8]
  inhibition: inactive
[9]
  Activity: 3.5%
[10]
  Activity: inactive
[11]
  Activity: 254.3 uL/L
[2]
  inhibition at 40 µM: 45%
[12]
  Activity: 221 uL/L
[3]
  inhibition: inactive
[13]
  Activity: 0.23 µM
[14]
  inhibition: Active
[15]
  Activity: 254 uL/L
[16]
  Activity: 135.6%
[17]
  Activity: 4.2 micromol/m2/s
[18]
  Activity: 82.4 mmol/m2/s
[19]
  inhibition: Active
[20]
  Activity: 212 uL/L
[21]
  inhibition: 44%
[22]
  Activity: 150 mmol/m2/s
[23]
  Activity: 5.6 micromol/m2/s
[24]
  inhibition at 40 µM: 76.5%
[4]
  inhibition: inactive
[25]
  Activity: inactive
[5]
  inhibition at 40 µM: 80%
[26]
  inhibition: inactive
[27]
  inhibition: inactive
[28]
  Activity: inactive
[29]
  inhibition at 40 µM: 60%
[30]
  Activity: 75.3 mmol/m2/s
[31]
  Activity: 151.2 mmol/m2/s
[6]
  inhibition at 40 µM: 62%
[32]
  Activity: 7.2 micromol/m2/s
[33]
  Activity: 7 micromol/m2/s

## C[n+]1ccc(-c2cc[n+](C)cc2)cc1 [PARAQUAT]
[9]
  Activity: 44.3%
[13]
  Activity: 110 µM
[16]
  Activity: 438.59%

## O=C1C=C(Nc2ccccc2O)C(=O)C=C1Nc1ccccc1O
[1]
  inhibition at 40 µM: 84%
[7]
  inhibition: Active
[2]
  inhibition at 40 µM: 45%
[3]
  inhibition: inactive
[4]
  inhibition: inactive
[5]
  inhibition at 40 µM: 80%
[6]
  inhibition at 40 µM: 62%

Source: ChEMBL document CHEMBL3045374, “Selective herbicide activity of 2,5-di(benzylamine)-p-benzoquinone against the monocot weed Echinochloa crusgalli. An in vivo analysis of photosynthesis and growth” (2005)
